The conditions of series [1]: mouse, in vivo.
Series [2] concerns mouse IL-4R alpha RNA. The series can be described thus: Antisense inhibition of mouse IL-4R alpha mRNA in b.END cells, real-time PCR. Format: cell-based. As to conditions: 24 hours. The protocol: The mouse brain endothelial cell line b.END was obtained from Dr. Werner Risau at the Max Plank Institute (Bad Nauheim, Germany). b.END cells were routinely cultured in DMEM, high glucose (Invitrogen Life Technologies, Carlsbad, Calif.) supplemented with 10% fetal bovine serum (Invitrogen Life Technologies, Carlsbad, Calif.). Cells were routinely passaged by trypsinization and dilution when they reached approximately 90% confluence. Cells were seeded into 96-well plates (Falcon-Primaria #353872, BD Biosciences, Bedford, Mass.) at a density of approximately 3000 cells/well for use in oligomeric compound transfection experiments.
When cells reach appropriate confluency, they are treated with oligonucleotide using Lipofectin™ as described. When cells reached 65-75% confluency, they were treated with oligonucleotide. Oligonucleotide was mixed with LIPOFECTIN™ Invitrogen Life Technologies, Carlsbad, Calif.) in Opti-MEM™-1 reduced serum medium (Invitrogen Life Technologies, Carlsbad, Calif.) to achieve the desired concentration of oligonucleotide and a LIPOFECTIN™ concentration of 2.5 or 3 […] oligonucleotide. This transfection mixture was incubated at room temperature for approximately 0.5 hours. For cells grown in 96-well plates, wells were washed once with 100 μL OPTI-MEM™-1 and then treated with 130 μL of the transfection mixture. Cells grown in 24-well plates or other standard tissue culture plates are treated similarly, using appropriate volumes of medium and oligonucleotide. Cells are treated and data are obtained in duplicate or triplicate. After approximately 4-7 hours of treatment at 37° C., the medium containing the transfection mixture was replaced with fresh culture medium. Cells were harvested 16-24 hours after oligonucleotide treatment.
Quantitation of IL-4R alpha mRNA levels was accomplished by real-time quantitative PCR using the ABI PRISM™ 7600, 7700, or 7900 Sequence Detection System (PE-Applied Biosystems, Foster City, Calif.) according to manufacturer's instructions.
Prior to quantitative PCR analysis, primer-probe sets specific to the target gene being measured were evaluated for their ability to be “multiplexed” with a GAPDH amplification reaction. After isolation the RNA is subjected to sequential reverse transcriptase (RT) reaction and real-time PCR, both of which are performed in the same well. RT and PCR reagents were obtained from Invitrogen Life Technologies (Carlsbad, Calif.). […] The RT reaction was carried out by incubation for 30 minutes at 48° C. Following a 10 minute incubation at 95° C. to activate the PLATINUM® Taq, 40 cycles of a two-step PCR protocol were carried out: 95° C. for 15 seconds (denaturation) followed by 60° C. for 1.5 minutes (annealing/extension).
Gene target quantities obtained by RT, real-time PCR were normalized using either the expression level of GAPDH, a gene whose expression is constant, or by quantifying total RNA using RiboGreen™ (Molecular Probes, Inc. Eugene, Oreg.). GAPDH expression was quantified by RT, real-time PCR, by being run simultaneously with the target, multiplexing, or separately. Total RNA was quantified using RiboGreen™ RNA quantification reagent (Molecular Probes, Inc. Eugene, Oreg.).
Probes and primers for use in real-time PCR were designed to hybridize to target-specific sequences. The target-specific PCR probes have FAM covalently linked to the 5′ end and TAMRA or MGB covalently linked to the 3′ end, where FAM is the fluorescent dye and TAMRA or MGB is the quencher dye.
A series of oligomeric compounds was designed to target different regions of mouse IL-4R alpha RNA, using SEQ ID NO: 5. All compounds are chimeric oligonucleotides (“gapmers”) 20 nucleotides in length, composed of a central “gap” region consisting of ten 2′-deoxynucleotides, which is flanked on both sides (5′ and 3′) by five-nucleotide “wings”. The wings are composed of 2′-O-(2-methoxyethyl) nucleotides, also known as 2′-MOE nucleotides. […]
For orientation: Real-time PCR tracks product formation cycle by cycle.

Series [3] has as its system OVA sensitized mice. As to the kind of experiment: Mouse model of allergic inflammation, chronic model (Penh, BAL cells, cytokines). Format: in vivo. As to conditions: for % Eosinophils (BAL) / % Neutrophils (BAL): day 76. As to the method:
In the mouse model of allergic inflammation, mice are sensitized and challenged with aerosolized chicken ovalbumin (OVA). Airway responsiveness is assessed by inducing airflow obstruction using a noninvasive method whereby unrestrained conscious OVA sensitized mice are placed into the main chamber of a plethysmograph (Buxco Electronics, Inc. Troy, N.Y.) and challenged with aerosolized methacholine. Pressure difference between this chamber and a reference chamber is used to extrapolate minute volume, breathing frequency and enhanced pause (Penh). Penh is a dimensionless parameter that is a function of total pulmonary airflow (i.e. the sum of the airflow in the upper and lower respiratory tracts) during the respiratory cycle of a mouse and is […] when airflow is greater. This parameter closely correlates with lung resistance as measured by traditional, invasive techniques using ventilated animals (Hamelmann et al., 1997, Am. J. Respir. Crit. Care Med. 156:766-775).
In the chronic model of allergic inflammation, mice are subjected to repeated intranasal OVA administration, producing a chronic inflammatory response. In this model, mice were sensitized by intraperitoneal injection with 100 μg of OVA on days 0 and 14 as in the previous models. OVA was administered at a dose of 500 μg on days 14, 27, 28, 29, 47, 61, 73, 74 and 75. Oligonucleotide, either ISIS 231894 or the mismatch control, was administered via the nose-only aerosol delivery exposure system at a dose of either 5 μg/kg or 500 μg/kg on days 31, 38, 45, 52, 59, 66 and 73. Dexamethasone, an anti-inflammatory agent, was administered by intraperitoneal injection at 2.5 mg/kg on days 47, 62, 73, 74 and 75. Analysis of endpoints was performed on day 76, except cytokines which were evaluated on day 62, 6 hours post OVA challenge. Endpoints were similar to those in the acute and rechallenge model, and included Penh (AHR), BAL inflammatory cell accumulation and cytokines and mucus accumulation.

Series [4] has as its system IL-4R alpha protein. The series can be described thus: IL-4R alpha protein in lung cells by flow cytometry, acute model. Format: in vivo, mouse. As to the method:
Dendritic cells, eosinophils, macrophages and epithelial cells recovered from collagenase digested lung were analyzed for expression of IL-4R alpha protein by flow cytometry. […] A second experiment, in which mice were dosed with 10 μg/kg ISIS 231894, confirmed the efficacy of ISIS 231894 to decrease AHR and eosinophilia in the acute model.
In general terms: Flow cytometry measures light scatter and fluorescence of single cells or particles in a stream.

For the substance “ISIS 231894: lead antisense oligonucleotide targeted to mouse IL-4R alpha; CCGCTGTTCTCAGGTGACAT; SEQ ID NO: 24; 2'-MOE gapmer, phosphorothioate (all phosphorothioate, sugars by position and methylation of C not given here; 2'-MOE gapmer)”, the “half life in the lung” value in series [1] was 48 to 96 h. The “IL-4R alpha mRNA” value was 100 % of untreated control in series [2] (1 nM); 55 % of untreated control in series [2] (5 nM); 41 % of untreated control in series [2] (10 nM); 35 % of untreated control in series [2] (25 nM); 20 % of untreated control in series [2] (50 nM); 20 % of untreated control in series [2] (100 nM). Besides, the “mouse IL-4R alpha mRNA reduction (in words)” value in series [2] (compared to mismatch control) is listed as “dose-dependent mouse IL-4R alpha mRNA reduction”. For the same substance, the “% Eosinophils (BAL)” value in series [3] (5 μg/kg inhaled) is 45%; in series [3] (500 μg/kg inhaled) it was 29%. For the same substance, the “% Neutrophils (BAL)” value is reported as 38% in series [3] (5 μg/kg inhaled) and 35% in series [3] (500 μg/kg inhaled). Also, the “percent of eosinophils in BAL fluid vs vehicle control, in words” value in series [3] (ISIS 231894 500 μg/kg, dexamethasone 2.5 mg/kg ip) is reported as “significant decrease”. Besides, the “methacholine-induced AHR (Penh) vs vehicle, in words” value in series [3] (ISIS 231894 each dose (5, 500 μg/kg), dexamethasone 2.5 mg/kg ip) is “significant decrease”. Moreover, the “percent neutrophils in BAL, in words” value in series [3] (both doses of ISIS 231894, dexamethasone 2.5 mg/kg ip) is “significantly reduced”. For the same substance, the “IL-5 and KC in BAL fluid vs vehicle, in words” value in series [3] (day 62, ISIS 231894 500 μg/kg, dexamethasone 2.5 mg/kg ip) was “significant reduction”. For the same substance, the “IL-4R alpha protein in dendritic, epithelial and mixed eosinophil/macrophage lung cells, in words” value in series [4] is “significant reduction”.

These data come from patent US20100056606A1, “Combination therapy using budesonide and antisense oligonucleotide targeted to IL4-receptor alpha” (ISIS Pharmaceuticals, Inc., priority 2005, published 2010).
